Earlier results, collected in patent publication US20170360829A1, “TREATMENT OF VASCULAR ANOMALIES” (GILLIES MCINDOE RESEARCH INSTITUTE, priority 2016, published 2017).

Columns and labels:
[1] = system: venous malformation (VM); details: treatment of VM; review by van der Vleuten et al. (ref. 14)
[2] = system: several tumoral cell lines

Row | Compound | effective in % of cases [1] | IC50 relative to cisplatin [2]
1 | CCO [ethanol] | 74% | –
2 | CCCCCCCCCCCCCCOS(=O)(=O)[O-].[Na+] [sodium tetradecyl sulfate] | 86% | –
3 | [Pt(dmba)(aza-N1)(dmso)] complex 1 | – | lower IC50 than cisplatin
4 | bleomycin | 88% | –
5 | polidocanol | 82% | –
